SMILES | melting point [°C]
Cc1cc(N)nc(CCc2nc3cc(-c4ccc(Cl)cc4)cnc3[nH]2)c1.Cl | 228 to 230
Cc1cc(N)nc(CCc2nc3cccnc3[nH]2)c1.Cl | 136
CC(=O)O.Cc1cc(N)nc(CCc2nc3cccnc3[nH]2)c1 | 54
Cc1ccc(-c2cnc3[nH]c(CCc4cc(C)cc(N)n4)nc3c2)cc1.Cl | 186
Cc1cc(N)nc(CC(C)c2nc3cccnc3[nH]2)c1 (racemic) [compound 2, (R,S)-2-[3-(2-Amino-4-methylpyridin-6-yl)prop-2-yl]-3H-imidazo[4,5-b]pyridine] | 48
Cc1cc(N)nc(CCc2nc3cccnc3[nH]2)c1 [compound 1, 2-[2-(2-Amino-4-methylpyridin-6-yl)ethyl]-3H-imidazo[4,5-b]pyridine] | 45 to 47
Cc1cc(N)nc(CCc2nc3cc(Br)cnc3[nH]2)c1 [compound 4, 2-[2-(2-Amino-4-methylpyridin-6-yl)ethyl]-6-bromo-3H-imidazo[4,5-b]pyridine] | 216
Cc1cc(N)nc(CCc2nc3cc(-c4ccccc4)cnc3[nH]2)c1 [compound 5, 2-[2-(2-Amino-4-methylpyridin-6-yl)ethyl]-6-phenyl-3H-imidazo[4,5-b]pyridine] | 230
Cc1cc(N)nc(CCc2nc3cc(-c4ccc(C#N)cc4)cnc3[nH]2)c1 [compound 6, 2-[2-(2-Amino-4-methylpyridin-6-yl)ethyl]-6-(4-cyano-phenyl)-3H-imidazo[4,5-b]pyridine] | 218
Cc1cc(N)nc(CCc2nc3cc(-c4cccc(OCc5ccccc5)c4)cnc3[nH]2)c1 [compound 13, 6-{2-[6-(3-Benzyloxy-phenyl)-3H-imidazo[4,5-b]pyridin-2-yl]-ethyl}-4-methyl-pyridin-2-ylamine] | 181
Cc1cc(N)nc(CCc2nc3cc(-c4cc(Cl)cc(Cl)c4)cnc3[nH]2)c1 [compound 14, 6-{2-[6-(3,5-Dichloro-phenyl)-3H-imidazo[4,5-b]pyridin-2-yl]-ethyl}-4-methyl-pyridin-2-ylamine] | 224
Cc1cc(N)nc(CCc2nc3cc(-c4ccc(OCc5ccccc5)cc4)cnc3[nH]2)c1 [compound 15, 6-{2-[6-(4-Benzyloxy-phenyl)-3H-imidazo[4,5-b]pyridin-2-yl]-ethyl}-4-methyl-pyridin-2-ylamine] | 225

The remaining lines, values ahead:

melting point [°C] | SMILES
162 | Cc1cc(N)nc(CCc2nc3cc(-c4cccc(O)c4)cnc3[nH]2)c1 [compound 16, 3-{2-[2-(6-Amino-4-methyl-pyridin-2-yl)-ethyl]-3H-imidazo[4,5-b]pyridin-6-yl}-phenol]
168 | Cc1cc(N)nc(CCc2nc3cc(-c4ccc(S(=O)(=O)N5CCC5)cc4)cnc3[nH]2)c1 [compound 17, 6-(2-{6-[4-(Azetidine-1-sulfonyl)-phenyl]-3H-imidazo[4,5-b]pyridin-2-yl}-ethyl)-4-methyl-pyridin-2-ylamine]
171 | Cc1cc(N)nc(CCc2nc3cc(-c4ccc(S(=O)(=O)N5CCCC5)cc4)cnc3[nH]2)c1 [compound 18, 4-Methyl-6-(2-{6-[4-(pyrrolidine-1-sulfonyl)-phenyl]-3H-imidazo[4,5-b]pyridin-2-yl}-ethyl)-pyridin-2-ylamine]
233 | Cc1cc(N)nc(CCc2nc3cc(-c4ccc(S(=O)(=O)N5CCCCC5)cc4)cnc3[nH]2)c1 [compound 19, 4-Methyl-6-(2-{6-[4-(piperidine-1-sulfonyl)-phenyl]-3H-imidazo[4,5-b]pyridin-2-yl}-ethyl)-pyridin-2-ylamine]
135 | Cc1cc(N)nc(CCc2nc3cc(-c4ccc(S(=O)(=O)N5CCN(C)CC5)cc4)cnc3[nH]2)c1 [compound 21, 4-Methyl-6-(2-{6-[4-(4-methyl-piperazine-1-sulfonyl)-phenyl]-3H-imidazo[4,5-b]pyridin-2-yl}-ethyl)-pyridin-2-ylamine]

From US7781453B2, “Aminopyridine-derivatives” (Altana Pharma AG, priority 2003, dated 2010)
